Measured values published in ChEMBL document CHEMBL1201862, “PubChem BioAssay data set” (2004).
Values belong to the compound of their own block, whether it stands above or below them. Active and inactive are the calls of the source.

What was measured:
[1] = target: T1, Calpain-2 catalytic subunit (Sus scrofa, UniProt P43367); assay: pig calpain II inhibitor potency, dose response, biochemical, fluorogenic peptide substrate (AID 1420); type: functional
T1 sequence (P43367 whole entry): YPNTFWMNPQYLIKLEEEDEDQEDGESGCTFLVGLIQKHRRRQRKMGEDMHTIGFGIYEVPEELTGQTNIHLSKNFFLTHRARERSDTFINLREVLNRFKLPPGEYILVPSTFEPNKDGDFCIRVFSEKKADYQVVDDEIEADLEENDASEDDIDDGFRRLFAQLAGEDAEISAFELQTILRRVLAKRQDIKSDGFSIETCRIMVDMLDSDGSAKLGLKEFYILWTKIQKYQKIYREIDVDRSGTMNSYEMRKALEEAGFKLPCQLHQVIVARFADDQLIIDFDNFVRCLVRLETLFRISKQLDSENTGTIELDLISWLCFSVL

[2] = target: Dual specificity protein kinase CLK4 (Homo sapiens, UniProt Q9HAZ1); type: functional
Sequence of Dual specificity protein kinase CLK4 (Q9HAZ1 whole entry): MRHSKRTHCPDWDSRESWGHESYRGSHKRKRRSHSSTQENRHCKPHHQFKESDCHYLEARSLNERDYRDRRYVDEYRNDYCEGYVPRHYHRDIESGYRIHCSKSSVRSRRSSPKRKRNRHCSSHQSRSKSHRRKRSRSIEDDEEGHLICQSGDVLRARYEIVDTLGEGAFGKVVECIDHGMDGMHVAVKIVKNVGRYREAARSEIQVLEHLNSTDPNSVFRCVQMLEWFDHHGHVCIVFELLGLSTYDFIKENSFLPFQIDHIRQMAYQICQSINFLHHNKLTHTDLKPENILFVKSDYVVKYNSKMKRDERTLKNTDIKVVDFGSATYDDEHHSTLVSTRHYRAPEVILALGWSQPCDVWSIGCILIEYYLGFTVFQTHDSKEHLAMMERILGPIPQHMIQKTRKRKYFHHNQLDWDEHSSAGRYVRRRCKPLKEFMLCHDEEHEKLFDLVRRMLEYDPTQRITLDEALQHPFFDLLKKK

[3] = target: Cyclin-dependent kinase 9 (Homo sapiens, UniProt P50750); type: functional;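 also: value from the CDK9 entry of a kinome-spanning kinase panel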
Sequence of Cyclin-dependent kinase 9 (P50750 whole entry): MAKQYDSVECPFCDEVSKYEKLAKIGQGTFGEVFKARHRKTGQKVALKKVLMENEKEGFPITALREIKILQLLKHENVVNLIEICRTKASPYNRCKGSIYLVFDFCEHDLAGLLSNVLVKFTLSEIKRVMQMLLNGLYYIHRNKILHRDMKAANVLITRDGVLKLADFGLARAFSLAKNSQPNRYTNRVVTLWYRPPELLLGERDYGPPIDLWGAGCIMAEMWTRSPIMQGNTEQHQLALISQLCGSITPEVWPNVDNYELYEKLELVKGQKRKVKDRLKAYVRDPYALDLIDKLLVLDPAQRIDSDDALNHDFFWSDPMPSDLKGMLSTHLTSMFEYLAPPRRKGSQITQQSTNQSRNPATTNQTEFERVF

[4] = target: T2, Tyrosine-protein kinase JAK3 (Homo sapiens, UniProt P52333); type: functional
T2 sequence (P52333 whole entry): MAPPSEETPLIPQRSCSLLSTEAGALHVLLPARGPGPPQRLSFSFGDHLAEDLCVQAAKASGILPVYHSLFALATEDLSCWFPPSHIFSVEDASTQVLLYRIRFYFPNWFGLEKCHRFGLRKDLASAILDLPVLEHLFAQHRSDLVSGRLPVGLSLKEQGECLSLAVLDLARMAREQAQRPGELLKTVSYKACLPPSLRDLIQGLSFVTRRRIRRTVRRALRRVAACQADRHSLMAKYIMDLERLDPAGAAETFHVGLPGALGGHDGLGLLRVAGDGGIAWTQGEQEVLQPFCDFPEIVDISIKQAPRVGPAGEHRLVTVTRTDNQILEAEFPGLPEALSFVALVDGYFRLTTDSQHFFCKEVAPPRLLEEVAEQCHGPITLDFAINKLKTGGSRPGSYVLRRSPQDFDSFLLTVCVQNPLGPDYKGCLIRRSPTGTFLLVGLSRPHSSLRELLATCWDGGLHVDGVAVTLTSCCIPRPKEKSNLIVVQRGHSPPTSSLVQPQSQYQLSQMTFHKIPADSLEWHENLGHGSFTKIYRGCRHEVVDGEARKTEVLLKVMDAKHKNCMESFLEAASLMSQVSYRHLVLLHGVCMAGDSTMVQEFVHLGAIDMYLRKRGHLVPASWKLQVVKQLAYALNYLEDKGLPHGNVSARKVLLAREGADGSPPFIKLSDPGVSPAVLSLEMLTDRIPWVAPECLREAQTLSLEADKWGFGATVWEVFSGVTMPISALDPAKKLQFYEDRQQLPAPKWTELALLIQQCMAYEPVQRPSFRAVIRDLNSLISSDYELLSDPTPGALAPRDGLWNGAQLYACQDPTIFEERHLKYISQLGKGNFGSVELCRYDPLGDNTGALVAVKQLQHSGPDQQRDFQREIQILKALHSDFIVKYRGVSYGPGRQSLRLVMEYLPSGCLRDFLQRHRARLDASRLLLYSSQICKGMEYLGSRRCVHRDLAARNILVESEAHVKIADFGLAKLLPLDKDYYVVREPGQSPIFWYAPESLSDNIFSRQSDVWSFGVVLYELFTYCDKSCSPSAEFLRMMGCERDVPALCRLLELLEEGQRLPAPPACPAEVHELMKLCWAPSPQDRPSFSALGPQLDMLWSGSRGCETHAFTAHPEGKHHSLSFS

Activin receptor type-1 = Activin receptor type-1 (Homo sapiens, UniProt Q04771); assay: Navigating the Kinome. Panel member name: ACVR1; type: functional
Sequence of Activin receptor type-1 (Q04771 whole entry): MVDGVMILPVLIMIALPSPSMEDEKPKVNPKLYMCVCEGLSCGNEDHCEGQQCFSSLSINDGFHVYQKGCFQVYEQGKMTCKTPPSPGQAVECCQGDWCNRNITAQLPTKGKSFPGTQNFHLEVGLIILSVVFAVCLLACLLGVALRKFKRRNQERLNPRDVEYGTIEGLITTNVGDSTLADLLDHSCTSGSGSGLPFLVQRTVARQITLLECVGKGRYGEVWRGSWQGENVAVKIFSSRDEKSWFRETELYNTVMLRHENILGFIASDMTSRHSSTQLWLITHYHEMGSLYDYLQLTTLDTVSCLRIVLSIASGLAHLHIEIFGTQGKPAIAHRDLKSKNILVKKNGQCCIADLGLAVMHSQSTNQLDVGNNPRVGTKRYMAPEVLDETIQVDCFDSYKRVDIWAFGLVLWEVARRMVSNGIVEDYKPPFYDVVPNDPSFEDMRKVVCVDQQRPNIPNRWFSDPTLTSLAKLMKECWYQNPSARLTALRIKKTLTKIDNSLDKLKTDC

[5] = target: Fibroblast growth factor receptor 1 (Homo sapiens, UniProt P11362); type: functional
Sequence of Fibroblast growth factor receptor 1 (P11362 whole entry, canonical isoform): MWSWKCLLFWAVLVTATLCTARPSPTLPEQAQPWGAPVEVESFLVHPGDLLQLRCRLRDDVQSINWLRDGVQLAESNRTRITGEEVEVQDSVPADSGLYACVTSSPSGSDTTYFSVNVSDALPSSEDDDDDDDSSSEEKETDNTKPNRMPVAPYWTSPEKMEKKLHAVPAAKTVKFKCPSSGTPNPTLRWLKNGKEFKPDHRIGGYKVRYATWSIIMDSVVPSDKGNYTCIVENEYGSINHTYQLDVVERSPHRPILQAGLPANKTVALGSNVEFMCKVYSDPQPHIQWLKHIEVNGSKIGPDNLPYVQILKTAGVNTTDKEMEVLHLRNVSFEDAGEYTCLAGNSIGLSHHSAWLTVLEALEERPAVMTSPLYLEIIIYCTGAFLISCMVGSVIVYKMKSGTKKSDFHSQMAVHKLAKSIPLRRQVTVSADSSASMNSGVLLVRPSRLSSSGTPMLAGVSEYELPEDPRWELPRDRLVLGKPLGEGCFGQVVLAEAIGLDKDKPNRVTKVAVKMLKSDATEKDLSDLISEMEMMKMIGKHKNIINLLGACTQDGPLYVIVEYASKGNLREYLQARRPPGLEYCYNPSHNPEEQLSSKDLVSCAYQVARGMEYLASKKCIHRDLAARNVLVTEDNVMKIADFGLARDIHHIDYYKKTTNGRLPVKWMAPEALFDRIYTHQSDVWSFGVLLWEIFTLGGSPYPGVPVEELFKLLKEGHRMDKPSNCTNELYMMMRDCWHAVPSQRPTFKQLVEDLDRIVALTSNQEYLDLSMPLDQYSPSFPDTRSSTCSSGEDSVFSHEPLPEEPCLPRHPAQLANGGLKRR

[6] = target: Casein kinase I isoform alpha (Homo sapiens, UniProt P48729); type: functional
Sequence of Casein kinase I isoform alpha (P48729 whole entry, canonical isoform): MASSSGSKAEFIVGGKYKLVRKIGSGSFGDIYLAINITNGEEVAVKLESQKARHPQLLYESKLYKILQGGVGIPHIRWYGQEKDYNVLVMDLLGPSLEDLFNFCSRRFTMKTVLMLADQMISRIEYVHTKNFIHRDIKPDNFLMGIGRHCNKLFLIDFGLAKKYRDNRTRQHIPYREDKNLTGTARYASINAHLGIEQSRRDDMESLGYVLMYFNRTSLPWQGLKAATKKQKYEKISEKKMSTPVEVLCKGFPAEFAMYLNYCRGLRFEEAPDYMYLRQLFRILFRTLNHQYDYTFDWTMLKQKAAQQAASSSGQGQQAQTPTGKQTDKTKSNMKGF

[7] = target: T3, Serine/threonine-protein kinase Chk1 (Homo sapiens, UniProt O14757); type: functional;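 also: measured as one member of a kinome-wide kinase profiling panel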
T3 sequence (O14757 whole entry): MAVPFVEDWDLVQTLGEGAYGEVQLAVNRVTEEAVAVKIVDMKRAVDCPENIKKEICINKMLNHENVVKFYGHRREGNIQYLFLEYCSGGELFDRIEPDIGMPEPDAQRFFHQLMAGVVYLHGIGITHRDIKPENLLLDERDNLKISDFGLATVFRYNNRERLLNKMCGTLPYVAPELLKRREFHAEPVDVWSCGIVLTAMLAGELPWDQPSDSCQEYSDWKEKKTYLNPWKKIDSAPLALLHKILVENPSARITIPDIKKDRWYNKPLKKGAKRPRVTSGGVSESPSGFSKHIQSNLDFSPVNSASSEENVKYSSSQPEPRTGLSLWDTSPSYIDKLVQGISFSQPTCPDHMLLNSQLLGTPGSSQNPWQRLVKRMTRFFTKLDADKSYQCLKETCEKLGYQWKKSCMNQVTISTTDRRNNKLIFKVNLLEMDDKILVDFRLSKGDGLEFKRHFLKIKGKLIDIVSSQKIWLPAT

[8] = target: Dual specificity protein kinase CLK2 (Homo sapiens, UniProt P49760); type: functional
Sequence of Dual specificity protein kinase CLK2 (P49760 whole entry): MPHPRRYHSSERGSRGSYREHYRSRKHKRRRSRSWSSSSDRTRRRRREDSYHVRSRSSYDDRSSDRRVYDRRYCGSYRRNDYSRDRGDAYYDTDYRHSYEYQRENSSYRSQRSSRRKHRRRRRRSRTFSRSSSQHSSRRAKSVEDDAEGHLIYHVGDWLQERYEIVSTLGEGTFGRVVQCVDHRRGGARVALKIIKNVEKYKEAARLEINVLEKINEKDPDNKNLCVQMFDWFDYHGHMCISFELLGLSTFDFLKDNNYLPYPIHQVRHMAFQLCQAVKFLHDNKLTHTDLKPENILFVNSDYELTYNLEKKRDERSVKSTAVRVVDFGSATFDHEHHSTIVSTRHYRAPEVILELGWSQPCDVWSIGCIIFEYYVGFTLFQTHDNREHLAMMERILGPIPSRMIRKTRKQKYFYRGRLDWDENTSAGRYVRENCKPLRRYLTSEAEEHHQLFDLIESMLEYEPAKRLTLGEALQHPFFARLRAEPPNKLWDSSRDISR

[9] = target: Serine/threonine-protein kinase D3 (Homo sapiens, UniProt O94806); type: functional;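 also: determined within a kinase panel screen, with PRKCN as the panel member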
Sequence of Serine/threonine-protein kinase D3 (O94806 whole entry): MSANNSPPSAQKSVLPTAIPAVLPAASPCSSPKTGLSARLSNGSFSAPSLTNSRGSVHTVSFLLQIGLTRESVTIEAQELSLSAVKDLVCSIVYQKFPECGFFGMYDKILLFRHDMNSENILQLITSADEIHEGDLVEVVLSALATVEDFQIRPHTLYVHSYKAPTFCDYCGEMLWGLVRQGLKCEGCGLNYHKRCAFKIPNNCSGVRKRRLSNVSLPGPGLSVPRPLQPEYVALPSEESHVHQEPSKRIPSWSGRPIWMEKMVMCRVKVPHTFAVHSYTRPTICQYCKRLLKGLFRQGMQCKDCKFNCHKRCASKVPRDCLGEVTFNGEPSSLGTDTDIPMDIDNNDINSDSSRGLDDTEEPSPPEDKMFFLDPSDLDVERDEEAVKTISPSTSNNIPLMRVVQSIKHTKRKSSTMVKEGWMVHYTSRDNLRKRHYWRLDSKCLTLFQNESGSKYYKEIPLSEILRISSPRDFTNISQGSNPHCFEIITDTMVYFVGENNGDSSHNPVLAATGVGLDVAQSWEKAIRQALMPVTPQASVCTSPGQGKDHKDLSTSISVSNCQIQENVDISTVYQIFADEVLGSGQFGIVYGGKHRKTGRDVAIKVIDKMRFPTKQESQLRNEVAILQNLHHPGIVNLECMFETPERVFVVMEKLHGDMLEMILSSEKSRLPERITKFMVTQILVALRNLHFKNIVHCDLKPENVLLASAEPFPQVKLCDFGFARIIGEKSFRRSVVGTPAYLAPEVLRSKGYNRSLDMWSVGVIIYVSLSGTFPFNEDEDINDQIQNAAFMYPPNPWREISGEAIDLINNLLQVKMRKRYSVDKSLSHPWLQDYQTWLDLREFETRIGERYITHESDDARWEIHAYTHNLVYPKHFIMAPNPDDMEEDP

Aurora kinase A = Aurora kinase A (Homo sapiens, UniProt O14965); type: functional;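 also: value from the Navigating the Kinome kinase panel profiling, panel entry STK6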
Sequence of Aurora kinase A (O14965 whole entry): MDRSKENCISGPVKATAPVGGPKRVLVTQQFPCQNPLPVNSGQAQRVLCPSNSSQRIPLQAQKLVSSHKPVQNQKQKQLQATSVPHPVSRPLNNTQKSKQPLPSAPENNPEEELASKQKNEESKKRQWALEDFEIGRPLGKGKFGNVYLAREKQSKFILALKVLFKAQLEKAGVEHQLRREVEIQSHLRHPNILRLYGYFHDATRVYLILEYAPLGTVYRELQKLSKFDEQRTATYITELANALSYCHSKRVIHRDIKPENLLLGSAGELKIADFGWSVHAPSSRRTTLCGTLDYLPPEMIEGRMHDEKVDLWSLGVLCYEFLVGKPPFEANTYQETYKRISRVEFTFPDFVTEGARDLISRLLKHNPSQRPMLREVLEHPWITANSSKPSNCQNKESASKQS

[10] = target: G protein-coupled receptor kinase 5 (Homo sapiens, UniProt P34947); assay: Navigating the Kinome. Panel member name: GPRK5; type: functional
Sequence of G protein-coupled receptor kinase 5 (P34947 whole entry): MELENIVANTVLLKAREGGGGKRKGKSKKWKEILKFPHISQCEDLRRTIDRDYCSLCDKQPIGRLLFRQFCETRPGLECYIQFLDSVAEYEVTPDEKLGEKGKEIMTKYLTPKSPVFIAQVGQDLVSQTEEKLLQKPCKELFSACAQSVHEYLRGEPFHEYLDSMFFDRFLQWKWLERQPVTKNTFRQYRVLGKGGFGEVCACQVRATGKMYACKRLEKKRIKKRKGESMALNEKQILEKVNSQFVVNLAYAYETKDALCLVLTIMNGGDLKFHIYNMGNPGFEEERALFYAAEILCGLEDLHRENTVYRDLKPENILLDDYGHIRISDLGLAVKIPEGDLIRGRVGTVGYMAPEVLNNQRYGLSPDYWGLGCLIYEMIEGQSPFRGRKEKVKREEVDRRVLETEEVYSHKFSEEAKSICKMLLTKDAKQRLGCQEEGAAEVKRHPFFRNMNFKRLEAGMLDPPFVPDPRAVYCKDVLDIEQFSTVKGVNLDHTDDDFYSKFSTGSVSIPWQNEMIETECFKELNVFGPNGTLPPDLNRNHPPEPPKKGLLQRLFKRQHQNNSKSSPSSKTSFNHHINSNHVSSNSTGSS

Streptococcus = assay: Group A Streptococcus viability loss, dose response, counter-screen for streptokinase expression inhibitor project, luminescence, BacTiterGlo (AID 1915); type: functional, organism-based;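 also: potency for reduction of bacterial viability or growth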
Beta-galactosidase = Beta-galactosidase (Escherichia coli, UniProt Q8VNN2); assay: beta-galactosidase enzyme inhibitors and activators, dose response, artefact control for CCR6 antagonist project, biochemical, E. coli enzyme, set 3 (AID 504712); type: functional
[11] = system: Streptococcus sp. 'group A'; assay: growth inhibition of control SK(-) GAS strain, dose response, counter-screen for streptokinase expression inhibitor project, luminescence, kanamycin, BacTiterGlo, confirmation (AID 1900); type: functional, organism-based

SMILES: Cc1ccc(NC(=O)COc2cccc(/C=C3\SC(=S)N(CCC(=O)O)C3=O)c2)cc1Cl
- IC50 [1]: > 50000 nM (not active)

- Ki [2]: 316 nM (active)
- Ki [3]: > 1580 nM (inactive)
- Ki [4]: > 5010 nM (inactive)
- Ki (Activin receptor type-1): 2510 nM (active)
- Ki [5]: > 3980 nM (inactive)
- Ki [6]: 1580 nM (active)
- Ki [7]: 79.4 nM (active)
- Ki [8]: > 3980 nM (inactive)
- Ki [9]: > 3980 nM (inactive)
- Ki (Aurora kinase A): 200 nM (active)
- Ki [10]: 1000 nM (active)
SMILES: COc1cccc(C(C)NC(=O)c2ccc(-c3ccncc3)s2)c1 (stereo not given)

SMILES: O=Nc1c(-c2c(O)[nH]c3cc(Br)ccc23)[nH]c2ccccc12
- EC50 (Streptococcus): 3480 nM (active)
- IC50 (Beta-galactosidase): 40800 nM (inactive)
- EC50 [11]: 2600 nM (active)
